The target in assay [1] is T1, APEH recombinantly expressed in HEK-293 cells (Mus musculus, UniProt Q8R146).
T1 construct: full-length cDNAs encoding mouse serine hydrolases were either transfected directly; host or cells: HEK-293
Briefly: APEH exopeptidase assay with synthetic N-acetylated hexapeptides (LC-MS). The class given is biochemical. To be noted: 3 nM, 30 min pre-treatment. The method, then: Enzyme assays were performed with LC-MS by monitoring the release of the N-terminal N-acetyl amino acid. APEH was transiently overexpressed in HEK-293 cells and whole cell lysates were treated with DMSO or 3 nM AA74-1 for 30 minutes and adjusted to a final protein concentration of about 0.3 mg/mL with PBS buffer. For each reaction, about 200 μM of hexapeptide were incubated with lysates for 10 h at 37° C. before quenching with 0.8 mL MeOH. Samples were centrifuged for 10 minutes at 10,000×g at 4° C. and the supernatant was dried down under vacuum. For LC-MS analysis samples were injected into an Agilent 1100 LC-MSD SL instrument applying the following gradient: Buffer A (MeCN) to Buffer B (95:5 H2O/MeCN+50 mM NH4OAc+0.2% NH4OH). Data represent the average±s.d. for three experiments.
Enzyme assays were performed with LC-MS by monitoring the formation of free N-acetyl amino acid. Mouse APEH was recombinantly expressed in HEK-293 cells and whole cell lysates of overexpressed APEH (or mock) were pre-treated with DMSO or 3 nM AA74-1 for 30 minutes and adjusted to a final protein concentration of 0.3 mg/mL with PBS buffer. For each reaction 200 μM of hexapeptide substrate were incubated with lysates in 200 μL total reaction volume. Reactions were incubated for 10 h at 37° C. before quenching with 0.8 mL MeOH. […]

Another assay relates to peritoneal macrophages. Briefly: LPS-stimulated TNF-alpha release (ELISA), macrophages from treated C57 BL/6 mice. The class given is in vivo, mouse. The settings on record: 5 mg/kg, 4 hours, i.p.; LPS 5 μg/mL, 90 min. The method, then: The effects of DAGLB-inhibition on the proinflammatory response in Pla2g4a^+/+ versus Pla2g4a^−/− mice also was evaluated. Thioglycolate-elicited macrophages from C57 BL/6 mice treated with KT109 or KT195 (5 mg/kg, 4 hours, i.p.) were harvested, plated, and stimulated with lipopolysaccharide (LPS).
A general note: An ELISA detects its analyte on a solid surface through an enzyme-linked reagent.

The target of the next assay is T2, DAGLB (Mus musculus, UniProt Q91WC9).
T2 sequence (Q91WC9 1-669): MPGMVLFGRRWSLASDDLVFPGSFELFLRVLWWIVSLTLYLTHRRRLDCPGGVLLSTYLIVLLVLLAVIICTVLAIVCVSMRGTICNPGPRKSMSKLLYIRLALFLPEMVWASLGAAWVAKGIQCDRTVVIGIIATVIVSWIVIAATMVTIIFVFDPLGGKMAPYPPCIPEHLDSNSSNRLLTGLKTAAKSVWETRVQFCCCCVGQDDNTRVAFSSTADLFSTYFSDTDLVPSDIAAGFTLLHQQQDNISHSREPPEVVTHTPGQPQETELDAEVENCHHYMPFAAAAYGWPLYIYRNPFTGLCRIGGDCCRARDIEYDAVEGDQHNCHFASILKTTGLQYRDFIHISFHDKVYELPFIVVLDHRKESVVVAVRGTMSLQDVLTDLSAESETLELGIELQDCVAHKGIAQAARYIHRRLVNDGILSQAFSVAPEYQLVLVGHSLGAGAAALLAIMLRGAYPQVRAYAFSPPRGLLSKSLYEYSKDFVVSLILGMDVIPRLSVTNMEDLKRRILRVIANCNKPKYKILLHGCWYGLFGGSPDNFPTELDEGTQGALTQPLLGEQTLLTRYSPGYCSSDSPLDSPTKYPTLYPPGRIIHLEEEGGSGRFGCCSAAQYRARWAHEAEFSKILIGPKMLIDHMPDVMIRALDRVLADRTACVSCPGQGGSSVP
The assay can be described thus: ABPP-SILAC in Neuro2A cells. The settings on record: about 4 hours; 25 nM KT172, 50 nM KT109.

A further assay concerns the target T3, ABHD6 (Mus musculus, UniProt Q8R2Y0).
T3 sequence (Q8R2Y0 1-336): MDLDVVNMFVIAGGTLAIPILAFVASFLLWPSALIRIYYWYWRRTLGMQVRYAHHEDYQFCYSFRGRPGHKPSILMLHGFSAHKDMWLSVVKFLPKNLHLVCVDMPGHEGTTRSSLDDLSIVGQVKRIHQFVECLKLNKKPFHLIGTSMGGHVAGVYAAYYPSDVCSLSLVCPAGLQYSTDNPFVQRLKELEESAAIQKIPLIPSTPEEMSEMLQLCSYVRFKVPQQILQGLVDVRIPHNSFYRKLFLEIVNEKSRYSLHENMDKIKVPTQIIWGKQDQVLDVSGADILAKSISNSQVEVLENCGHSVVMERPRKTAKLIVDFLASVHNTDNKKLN
Briefly: ABPP-MudPIT of peritoneal macrophages from treated mice. To be noted: in vivo. Also on record: from tissue; host or cells: thioglycolate-elicited peritoneal macrophages of mice.

T1 sequence (Q8R146 whole entry): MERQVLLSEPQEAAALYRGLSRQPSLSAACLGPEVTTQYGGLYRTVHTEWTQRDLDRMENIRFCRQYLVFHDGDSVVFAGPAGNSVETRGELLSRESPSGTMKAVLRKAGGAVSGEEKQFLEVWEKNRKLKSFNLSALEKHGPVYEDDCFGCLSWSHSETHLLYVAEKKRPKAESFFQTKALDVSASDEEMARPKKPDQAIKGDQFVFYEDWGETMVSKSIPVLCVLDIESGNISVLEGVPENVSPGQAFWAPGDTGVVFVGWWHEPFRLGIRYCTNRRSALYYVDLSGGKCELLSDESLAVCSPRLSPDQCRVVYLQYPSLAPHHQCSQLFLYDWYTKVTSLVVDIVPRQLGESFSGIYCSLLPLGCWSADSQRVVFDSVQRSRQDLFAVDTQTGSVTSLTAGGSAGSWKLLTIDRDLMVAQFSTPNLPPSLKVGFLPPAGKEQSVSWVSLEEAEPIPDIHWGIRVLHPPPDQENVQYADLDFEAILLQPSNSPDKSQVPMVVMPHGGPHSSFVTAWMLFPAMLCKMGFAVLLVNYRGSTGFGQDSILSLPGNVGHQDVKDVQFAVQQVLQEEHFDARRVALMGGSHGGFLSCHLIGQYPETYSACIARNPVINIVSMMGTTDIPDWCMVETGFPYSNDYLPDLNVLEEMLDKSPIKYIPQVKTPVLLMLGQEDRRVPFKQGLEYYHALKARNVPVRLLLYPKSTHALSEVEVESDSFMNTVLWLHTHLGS

As for `CC(C)CC(O)(CC(C)C)c1cnn(C(=O)N2CCCC2)n1` [AA74-1], in assay [1], the “cleavage of N-terminally acetylated residue by APEH-transfected cells” value is listed as “blocked”. Consider `O=C(N1CCCCC1Cc1ccccc1)n1cc(-c2ccc(-c3ccccc3)cc2)nn1` (stereo not shown) [KT109], for which, in the assay on peritoneal macrophages, the “secreted TNF-alpha levels” value is listed as “modest but significant reduction in secreted TNF-alpha levels”. On DAGLB, the DAGLB activity blocked result was “approximately 90%”.

As to `COc1ccc(-c2ccc(-c3cn(C(=O)N4CCCCC4c4ccccc4)nn3)cc2)cc1` (stereo not shown) [KT195], the “ABHD6 inhibition by spectral counting” value at ABHD6 is “complete inhibition of ABHD6”.

Source of the values: US9108930B2, “N1- and N2-carbamoyl-1,2,3-triazole serine hydrolase inhibitors and methods” (The Scripps Research Institute, priority 2011, dated 2015).
